In PubChem BioAssay AID256 (DTP/NCI, 2004):
“And” between values parts separate entries of the source, which are not always exact repeats. Equal entries are not always repeated. Inconclusive results and toxic doses are left out.

Tested on: CD2F1 mice, L1210 leukemia ip, survival T/C
Assay: NCI In Vivo Anticancer Drug Screen. Data for tumor model L1210 Leukemia (intraperitoneal) in CD2F1 (CDF1) mice
Details: higher = longer survival
In short: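 Tumor-bearing mice (transplanted tumor) were split into treated and vehicle control groups, and the measured endpoint of each treated group was divided by that of its vehicle controls.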

S=c1nc[nH]c2nc[nH]c12
T/C (endpoint: mean survival time, dose: 180.0 mg/kg/injection, schedule: Q## X002 (ip), vehicle: saline): 164 % of control
T/C (endpoint: mean survival time, dose: 180.0 mg/kg/injection, schedule: Q## X009 (ip), vehicle: saline): 154 % of control
T/C (endpoint: mean survival time, dose: 270.0 mg/kg/injection, schedule: Q## X006 (ip), vehicle: saline): 150 % of control
T/C (endpoint: mean survival time, dose: 270.0 mg/kg/injection, schedule: Q## X009 (ip), vehicle: saline): 153 % of control
T/C (endpoint: median survival time, dose: 15.6 mg/kg/injection, schedule: Q01DX009 (ip), vehicle: alkali diluted with saline): 116 % of control
T/C (endpoint: median survival time, dose: 18.0 mg/kg/injection, schedule: Q01DX009 (ip), vehicle: alkali diluted with saline): 118 % of control
T/C (endpoint: median survival time, dose: 20.0 mg/kg/injection, schedule: Q01DX005 (ip), vehicle: water): 187 % of control
T/C (endpoint: median survival time, dose: 25.0 mg/kg/injection, schedule: Q01DX009 (ip), vehicle: Klucel (hydroxypropylcellulose) (HPC)): 182 % of control
T/C (endpoint: median survival time, dose: 25.0 mg/kg/injection, schedule: Q01DX009 (ip), vehicle: alkali diluted with water): 122 % of control
T/C (endpoint: median survival time, dose: 25.9 mg/kg/injection, schedule: Q01DX009 (ip), vehicle: alkali diluted with saline): 124 % of control
T/C (endpoint: median survival time, dose: 26.0 mg/kg/injection, schedule: Q01DX009 (ip), vehicle: Klucel (hydroxypropylcellulose) (HPC)): 170 % of control
T/C (endpoint: median survival time, dose: 30.0 mg/kg/injection, schedule: Q01DX009 (ip), vehicle: alkali diluted with saline): 121 % of control
T/C (endpoint: median survival time, dose: 37.5 mg/kg/injection, schedule: Q04DX003 (ip), vehicle: Klucel (hydroxypropylcellulose) (HPC)): 154 % of control
T/C (endpoint: median survival time, dose: 40.0 mg/kg/injection, schedule: Q01DX005 (ip), vehicle: water): 310 % of control
T/C (endpoint: median survival time, dose: 40.0 mg/kg/injection, schedule: Q01DX009 (ip), vehicle: Klucel (hydroxypropylcellulose) (HPC)): 159 % of control
T/C (endpoint: median survival time, dose: 40.0 mg/kg/injection, schedule: Q01DX009 (ip), vehicle: alkali diluted with saline): 123 % of control
T/C (endpoint: median survival time, dose: 50.0 mg/kg/injection, schedule: Q01DX009 (ip), vehicle: Klucel (hydroxypropylcellulose) (HPC)): 259 % of control
T/C (endpoint: median survival time, dose: 50.0 mg/kg/injection, schedule: Q01DX009 (ip), vehicle: alkali diluted with water): 164 % of control
T/C (endpoint: median survival time, dose: 50.0 mg/kg/injection, schedule: Q04DX003 (ip), vehicle: alkali diluted with saline): 101 % of control
T/C (endpoint: median survival time, dose: 60.0 mg/kg/injection, schedule: Q01DX009 (ip), vehicle: alkali diluted with saline): 173 % of control
T/C (endpoint: median survival time, dose: 60.0 mg/kg/injection, schedule: Q01DX009 (ip), vehicle: water): 159 % of control
T/C (endpoint: median survival time, dose: 70.0 mg/kg/injection, schedule: Q01DX009 (ip), vehicle: alkali diluted with saline): 151 % of control and 158 % of control
T/C (endpoint: median survival time, dose: 72.0 mg/kg/injection, schedule: Q01DX009 (ip), vehicle: alkali diluted with saline): 150 % of control
T/C (endpoint: median survival time, dose: 75.0 mg/kg/injection, schedule: Q04DX003 (ip), vehicle: Klucel (hydroxypropylcellulose) (HPC)): 176 % of control
T/C (endpoint: median survival time, dose: 78.0 mg/kg/injection, schedule: Q04DX003 (ip), vehicle: other): 120 % of control
T/C (endpoint: median survival time, dose: 80.0 mg/kg/injection, schedule: Q01DX005 (ip), vehicle: Klucel (hydroxypropylcellulose) (HPC)): 158 % of control
T/C (endpoint: median survival time, dose: 80.0 mg/kg/injection, schedule: Q01DX005 (ip), vehicle: water): 164 % of control
T/C (endpoint: median survival time, dose: 80.0 mg/kg/injection, schedule: Q01DX009 (ip), vehicle: water): 158 % of control
T/C (endpoint: median survival time, dose: 83.3 mg/kg/injection, schedule: Q01DX009 (ip), vehicle: alkali diluted with saline): 160 % of control
T/C (endpoint: median survival time, dose: 100.0 mg/kg/injection, schedule: Q01DX001 (ip), vehicle: alkali diluted with saline): 117 % of control and 122 % of control
T/C (endpoint: median survival time, dose: 100.0 mg/kg/injection, schedule: Q01DX001 (ip), vehicle: alkali diluted with water): 157 % of control
T/C (endpoint: median survival time, dose: 100.0 mg/kg/injection, schedule: Q01DX005 (ip), vehicle: alkali diluted with water): 172 % of control
T/C (endpoint: median survival time, dose: 100.0 mg/kg/injection, schedule: Q01DX009 (ip), vehicle: Klucel (hydroxypropylcellulose) (HPC)): 211 % of control
T/C (endpoint: median survival time, dose: 100.0 mg/kg/injection, schedule: Q04DX003 (ip), vehicle: alkali diluted with saline): 116 % of control
T/C (endpoint: median survival time, dose: 120.0 mg/kg/injection, schedule: Q01DX009 (ip), vehicle: alkali diluted with saline): 154 % of control
T/C (endpoint: median survival time, dose: 150.0 mg/kg/injection, schedule: Q04DX003 (ip), vehicle: Klucel (hydroxypropylcellulose) (HPC)): 178 % of control
T/C (endpoint: median survival time, dose: 160.0 mg/kg/injection, schedule: Q01DX005 (ip), vehicle: Klucel (hydroxypropylcellulose) (HPC)): 164 % of control
T/C (endpoint: median survival time, dose: 200.0 mg/kg/injection, schedule: Q01DX005 (ip), vehicle: alkali diluted with water): 89 % of control
T/C (endpoint: median survival time, dose: 200.0 mg/kg/injection, schedule: Q01DX009 (ip), vehicle: Klucel (hydroxypropylcellulose) (HPC)): 154 % of control
T/C (endpoint: median survival time, dose: 200.0 mg/kg/injection, schedule: Q01DX009 (ip), vehicle: alkali diluted with water): 88 % of control
T/C (endpoint: median survival time, dose: 200.0 mg/kg/injection, schedule: Q04DX003 (ip), vehicle: alkali diluted with saline): 155 % of control
T/C (endpoint: median survival time, dose: 200.0 mg/kg/injection, schedule: Q04DX003 (ip), vehicle: other): 475 % of control
T/C (endpoint: median survival time, dose: 400.0 mg/kg/injection, schedule: Q01DX009 (ip), vehicle: Klucel (hydroxypropylcellulose) (HPC)): 152 % of control
T/C (endpoint: median survival time, dose: 600.0 mg/kg/injection, schedule: Q04DX003 (ip), vehicle: Klucel (hydroxypropylcellulose) (HPC)): 194 % of control
